BindingDB's records for doi:10.1021/jm00207a020 (1978)

Molecular target: Adenylate cyclase type 1 (Rattus norvegicus, UniProt D4A3N4)
Assay: Inhibition of dopamine-sensitive rat brain adenylyl cyclase activity assessed as cAMP level

Adenylate cyclase type 1, sequence (D4A3N4 whole entry): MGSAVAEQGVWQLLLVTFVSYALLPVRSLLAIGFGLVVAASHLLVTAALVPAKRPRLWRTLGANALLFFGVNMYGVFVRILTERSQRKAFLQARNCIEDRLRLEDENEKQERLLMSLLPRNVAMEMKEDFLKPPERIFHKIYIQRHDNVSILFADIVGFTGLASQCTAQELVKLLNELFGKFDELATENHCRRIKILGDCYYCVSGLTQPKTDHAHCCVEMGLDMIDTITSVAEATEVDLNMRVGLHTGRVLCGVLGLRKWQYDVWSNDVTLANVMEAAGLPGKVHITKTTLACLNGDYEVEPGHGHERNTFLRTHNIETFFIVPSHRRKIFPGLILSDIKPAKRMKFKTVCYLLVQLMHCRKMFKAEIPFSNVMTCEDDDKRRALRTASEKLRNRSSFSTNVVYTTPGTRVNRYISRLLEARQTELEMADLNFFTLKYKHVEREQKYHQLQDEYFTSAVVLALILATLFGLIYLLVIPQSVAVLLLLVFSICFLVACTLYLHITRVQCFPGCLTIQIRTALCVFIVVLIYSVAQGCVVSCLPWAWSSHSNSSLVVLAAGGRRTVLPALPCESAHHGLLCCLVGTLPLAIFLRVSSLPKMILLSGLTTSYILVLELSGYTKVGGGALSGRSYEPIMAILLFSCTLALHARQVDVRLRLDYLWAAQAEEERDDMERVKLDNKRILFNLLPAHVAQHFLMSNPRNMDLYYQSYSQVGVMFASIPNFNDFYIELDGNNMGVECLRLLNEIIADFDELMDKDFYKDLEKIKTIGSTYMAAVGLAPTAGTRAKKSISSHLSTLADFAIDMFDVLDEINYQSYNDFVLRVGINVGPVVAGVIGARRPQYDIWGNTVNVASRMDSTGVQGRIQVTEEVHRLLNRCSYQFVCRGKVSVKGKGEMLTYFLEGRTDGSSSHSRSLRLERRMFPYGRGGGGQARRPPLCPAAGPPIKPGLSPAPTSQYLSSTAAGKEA

| SMILES | IC50 |
| --- | --- |
| c1ccc(C2=Nc3ccccc3N=C(N3CCC(c4ccccc4)CC3)C2)cc1 | 4.5 nM |
| CN1CCN(C2=Nc3cc(Cl)ccc3Nc3ccccc32)CC1 [8-Chloro-11-(4-methyl-piperazin-1-yl)-5H-dibenzo[b,e][1,4]diazepine(Clopazine)] | 1.4 nM |
